We go through two compounds from patent US7915245B2, “Methods and compositions of trail-death receptor agonists/activators” (The Board of Regents of the University of Texas System, priority 2007, dated 2011).

Series [1] has as its system human normal mammary epithelial cells (HMECs). In words: XTT cell viability, normal mammary epithelial cells. The class given is cell-based. The conditions noted are these: 72 h. The protocol: FIG. 21. DRAs have no effect on cell viability in human normal mammary epithelial cells (HMECs), HMECs were treated with DRA11, DRA9 and DRA9S for 72 h. At the end of incubation period, cell viability was measured by XTT assay. Data represent the mean±S.D. Control refers to group treated with DMSO (0.01%).
(§1) FIGS. 60 A, B & C. DRAs has no effect on cell viability of human normal mammary, prostate and lung epithelial cells. Human normal mammary (FIG. 60A), prostate (FIG. 60B) and lung (FIG. 60C) epithelial cells were treated with DRA11 (0-25 μM) for 72 h, and cell viability was measured by XTT assay.
(§2) XTT Assay. Cells (1×10^4 cells per well) were seeded in 96-well plates (flat bottom), and treated with death receptor agonists/activators/small molecules in the presence or absence of TNF-related apoptosis inducing ligand (TRAIL). Plates were incubated for various time points at 37° C. and 5% CO2. […] The spectrophotometric absorbance of the sample was measured using a microtitre plate (ELISA) reader. The wavelength to measure absorbance of the formazan product was 450 nm, and the reference wavelength was 650 nm.
HMECs were treated with DRA11, DRA9 and DRA9S for 72 h. At the end of incubation period, cell viability was measured by XTT assay. […]
On the technique in general: Tetrazolium assays rely on reduction of a dye to a coloured formazan, in cell work by metabolically active cells.

Series [2] concerns human normal prostate epithelial cells (PrECs). In words: XTT cell viability, normal prostate epithelial cells. The class given is cell-based. The conditions noted are these: 72 h. The method, then: FIG. 22. DRAs have no effect on cell viability in human normal prostate epithelial cells (PrECs). PrECs were treated with DRA11, DRA9 and DRA9S for 72 h. At the end of incubation period, cell viability was measured by XTT assay. Data represent the mean±S.D. Control refers to group treated with DMSO (0.01%).
as §1, §2
PrECs were treated with DRA11, DRA9 and DRA9S for 72 h. At the end of incubation period, cell viability was measured by XTT assay. […]

Series [3] deals with prostate cancer PC-3 cells xenografted. In words: PC-3 xenograft tumor growth. The class given is in vivo, Balb c nude mice. The conditions noted are these: 40 mg/kg iv, 5 days per week. The protocol: FIG. 26. […] PC-3 cells (2×10^6 cells, in a final volume of 0.1 ml) were injected subcutaneously in the right flank of Balb c nude mice. After tumor formation (about 100 mm^3), nude mice were treated (iv) with vehicle control (0.1 ml normal saline), DRA11 (20 mg/kg, 0.1 ml volume), DRA11 (30 mg/kg, 0.1 ml volume), and DRA11 (40 mg/kg, 0.1 ml volume) everyday 5 days per week throughout the duration of the experiment. Tumor volume was calculated using the equation: (volume=length×width×depth×0.5236 mm^3). Data represent mean±S.E.
FIG. 29. […] PC-3 cells (1×10^6 cells, in a final volume of 0.1 ml PBS) were injected subcutaneously in the right flank of Balb c nude mice. After tumor formation (about 100 mm^3), nude mice were treated (iv) with vehicle control (0.1 ml normal saline), and DRA9S (40 mg/kg, 0.1 ml volume) everyday 5 days per week throughout the duration of the experiment. Tumor volume was calculated using the equation: (volume=length×width×depth×0.5236 mm^3). […]
PC-3 cells (2×10^6 cells, in a final volume of 0.1 ml) were injected subcutaneously in the right flank of Balb c nude mice. […] Tumor volume was calculated using the equation: (volume=length×width×depth×0.5236 mm^3). […]
PC-3 cells (1×10^6 cells, in a final volume of 0.1 ml PBS) were injected subcutaneously in the right flank of Balb c nude mice. […] Tumor volume was calculated using the equation: (volume=length×width×depth×0.5236 mm^3). […]

Series [4] relates to breast cancer MDA-MB-231 cell line. In words: XTT cell viability with signaling inhibitor pretreatment, MDA-MB-231. The note with it: then DRA 72 h; for effect of Akt inhibitor on the inhibitory effect on cell viability: Akt inhibitor 0.5 μM 4 h pretreatment; for effect of PI-3 kinase inhibitor LY294002 on the inhibitory effect on cell viability: LY294002 2.5 μM 4 h pretreatment; for effect of NFκB inhibitor MG132 on the inhibitory effect on cell viability: MG132 2.5 μM 4 h pretreatment. The class given is cell-based, human. The protocol:
FIG. 39. […] MDA-MB-231 cells were pretreated with NFκB inhibitor MG132 (2.5 μM) for 4 h followed by treatment with various concentrations of DRA11, DRA9, and DRA9S for 72 h. At the end of incubation, cell viability was measured by XTT assay. Data represent the mean±S.D.
FIG. 40. […] MDA-MB-231 cells were pretreated with LY294002 (2.5 μM) for 4 h followed by treatment with various concentrations of DRA11, DRA9, and DRA9S for 72 h. At the end of incubation, cell viability was measured by XTT assay. Data represent the mean±S.D.
FIG. 41. […] MDA-MB-231 cells were pretreated with Akt inhibitor (0.5 μM) for 4 h followed by treatment with various concentrations of DRA11, DRA9, and DRA9S for 72 h. At the end of incubation, cell viability was measured by XTT assay. Data represent the mean±S.D.
XTT Assay. Cells (1×10^4 cells per well) were seeded in 96-well plates (flat bottom), and treated with death receptor agonists/activators/small molecules in the presence or absence of TNF-related apoptosis inducing ligand (TRAIL). Plates were incubated for various time points at 37° C. and 5% CO2. Before the end of the experiment, 50 μl XTT (sodium 3′[1-(phenylaminocarbonyl)-3,4-tetrazolium]-bis(4-methoxy-6-nitro) benzene sulfonic acid hydrate) labeling mixture (final concentration, 125 μM sodium XTT and 25 μM PMS) per well was added and plates were incubated for a further 4 h at 37° C. and 5% CO2. The spectrophotometric absorbance of the sample was measured using a microtitre plate (ELISA) reader. The wavelength to measure absorbance of the formazan product was 450 nm, and the reference wavelength was 650 nm.

Turning to `CCOc1cc(Br)c(Br)c(/C=N/c2cccc(C(=O)O)c2C)c1O` [DRA9S], the “effect on cell viability in HMECs” value in series [1] was “no effect”. Further, in series [2], the “effect on cell viability in PrECs” value is on record as “no effect”. In addition, in series [3], the “growth of xenografted PC-3 tumors (tumor volume)” value is “inhibits growth”. Besides, in series [4], the “effect of Akt inhibitor on the inhibitory effect on cell viability” value is given as “enhances the inhibitory effects”, the “effect of PI-3 kinase inhibitor LY294002 on the inhibitory effect on cell viability” value is recorded as “enhances the inhibitory effects” and the “effect of NFκB inhibitor MG132 on the inhibitory effect on cell viability” value is on record as “enhances the inhibitory effects”.

Regarding `CCOc1cc(Br)c(Br)c(/C=N/c2cccc(C(=O)O)c2)c1O` [DRA9], the “effect on cell viability in HMECs” value in series [1] was “no effect”. Moreover, the “effect on cell viability in PrECs” value in series [2] was “no effect”. Moreover, in series [4], the “effect of Akt inhibitor on the inhibitory effect on cell viability” value is recorded as “enhances the inhibitory effects”, the “effect of PI-3 kinase inhibitor LY294002 on the inhibitory effect on cell viability” value is recorded as “enhances the inhibitory effects” and the “effect of NFκB inhibitor MG132 on the inhibitory effect on cell viability” value was “enhances the inhibitory effects”.
